According to patent publication US20260256789A1, “METHODS FOR TREATMENT OF CANCER” (Frontier Medicines Corporation, priority 2022, published 2026):

Biological target: T1, KRAS G12C (GMPPNP-loaded) and cRAF Ras-binding domain (Homo sapiens, UniProt P01116, C118S/C51S/C80L/G12C)
T1 construct: truncated version comprising amino acids 1-169
Experiment: Inhibition of KRAS G12C and cRAF binding (AlphaScreen)
Details: KRAS G12C preloaded with GTP analogue GMPPNP, 2 hours preincubation
Procedure, shortened: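 Compounds (10-point, 1:3 from 50 μM; 2% DMSO) were incubated 2 h at room temperature with 0.5 nM GMPPNP-preloaded truncated Cys-light KRAS G12C, then 60-90 min with 0.75 nM GST-RBD of cRAF and AlphaScreen beads. Signal at 570 nm gave IC50 by 4-parameter regression, and a biotin-AviTag-GST counter assay excluded interference with the AlphaScreen readout.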

T1 sequence (P01116 1-169 isoform P01116-2 G12C/C51S/C80L/C118S): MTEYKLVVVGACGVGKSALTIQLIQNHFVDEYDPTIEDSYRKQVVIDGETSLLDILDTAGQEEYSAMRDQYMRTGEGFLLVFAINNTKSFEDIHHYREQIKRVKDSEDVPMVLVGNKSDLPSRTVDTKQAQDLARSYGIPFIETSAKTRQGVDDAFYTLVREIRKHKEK

Row | IC50 [nM] | SMILES
1 | < 10 | CN(C)CC#CC(=O)N1CC[C@@H](N(C)c2nc(OC[C@@]34CCCN3C[C@H](F)C4)nc3c(F)c(-c4nc(N)cc5cccc(Cl)c45)ncc23)C1 [Example 38, 1-((R)-3-((7-(3-amino-8-chloroisoquinolin-1-yl)-8-fluoro-2-(((2R,7aS)-2-fluorohexahydro-1H-pyrrolizin-7a-yl)methoxy)pyrido[4,3-d]pyrimidin-4-yl)(methyl)amino)pyrrolidin-1-yl)-4-(dimethylamino)but-2-yn-1-one]
2 | 100 to 500 | C=CC(=O)N1CC[C@@H](N(C)c2nc(OC[C@@]34CCCN3C[C@H](F)C4)nc3c(F)c(-c4cc(F)cc(Cl)c4C4CC4)ncc23)C1 [Example 191]
